Reference: patent US20240308992A1 (Biopolar Youtang(Guangdong) Pharmaceutical Co., Ltd., priority 2021, published 2024)

Biological target: T1, Drak2 (Homo sapiens, UniProt O94768)
T1 sequence (O94768 1-372): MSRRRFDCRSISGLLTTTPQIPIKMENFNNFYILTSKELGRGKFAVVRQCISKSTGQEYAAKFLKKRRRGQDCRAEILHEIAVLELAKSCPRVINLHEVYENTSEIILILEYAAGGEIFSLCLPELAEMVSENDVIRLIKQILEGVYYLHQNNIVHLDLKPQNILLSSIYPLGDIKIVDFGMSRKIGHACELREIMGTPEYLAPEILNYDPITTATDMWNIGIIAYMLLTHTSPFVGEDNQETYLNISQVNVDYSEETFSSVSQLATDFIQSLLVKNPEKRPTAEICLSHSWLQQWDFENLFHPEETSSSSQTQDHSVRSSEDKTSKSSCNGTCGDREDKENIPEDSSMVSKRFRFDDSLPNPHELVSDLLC
Experiment: Drak2 activity test, ADP-Glo kinase assay (Promega)
Assay type: biochemical
Settings: inhibition of Drak2 kinase activity, 2 h room temperature, activity range classes, read-out: IC50_Drak2

## COc1cc(-c2cncc(-c3cc(NC(=O)CC4CC(F)(F)C4)cs3)n2)ccc1C(=O)N(C)C1CCN(C)CC1 [Example B83, 4-(6-(4-(2-(3,3-difluorocyclobutyl)acetamido)thiophen-2-yl)pyrazin-2-yl)-2-methoxy-N-methyl-N-(1-methylpiperidin-4-yl)benzamide]
  IC50: 11 to 100 nM

## COc1cc(-c2cncc(-c3cc(NC(=O)C4CC45CCC5)cs3)n2)ccc1C(=O)N(C)C1CCN(C)CC1 (stereo not shown) [Example B84, N-(5-(6-(3-methoxy-4-(methyl(1-methylpiperidin-4-yl)carbamoyl)phenyl)pyrazin-2-yl)thiophen-3-yl)spiro[2.3]hexane-1-carboxamide]
  IC50: 11 to 100 nM

## COc1cc(-c2cncc(-c3cc(NC(=O)CC4(c5ccc(C(F)(F)F)cc5)CCC4)cs3)n2)ccc1C(=O)N(C)C1CCN(C)CC1 [Example B85, 2-methoxy-N-methyl-N-(1-methylpiperidin-4-yl)-4-(6-(4-(2-(1-(4-(trifluoromethyl)phenyl)cyclobutyl)acetamido)thiophen-2-yl)pyrazin-2-yl)benzamide]
  IC50: 101 to 1000 nM

## CCC1(CC(=O)Nc2csc(-c3cncc(-c4ccc(C(=O)N(C)C5CCN(C)CC5)c(OC)c4)n3)c2)CCC1 [Example B86, 4-(6-(4-(2-(1-ethylcyclobutyl)acetamido)thiophen-2-yl)pyrazin-2-yl)-2-methoxy-N-methyl-N-(1-methylpiperidin-4-yl)benzamide]
  IC50: 101 to 1000 nM

## COc1cc(-c2cncc(-c3cc(NC(=O)CC4CC(C(C)=O)C4(C)C)cs3)n2)ccc1C(=O)N(C)C1CCN(C)CC1 (stereo not shown) [Example B87, 4-(6-(4-(2-(3-acetyl-2,2-dimethylcyclobutyl)acetamido)thiophen-2-yl)pyrazin-2-yl)-2-methoxy-N-methyl-N-(1-methylpiperidin-4-yl)benzamide]
  IC50: 101 to 1000 nM

## COc1cc(-c2cncc(-c3cc(NC(=O)C(N)C4CCC4)cs3)n2)ccc1C(=O)N(C)C1CCN(C)CC1 (stereo not shown) [Example B88, 4-(6-(4-(2-amino-2-cyclobutylacetamido)thiophen-2-yl)pyrazin-2-yl)-2-methoxy-N-methyl-N-(1-methylpiperidin-4-yl)benzamide]
  IC50: 101 to 1000 nM

## COc1cc(-c2cncc(-c3cc(NC(=O)CC4COC4)cs3)n2)ccc1C(=O)N(C)C1CCN(C)CC1 [Example B89, 2-methoxy-N-methyl-N-(1-methylpiperidin-4-yl)-4-(6-(4-(2-(oxetan-3-yl)acetamido)thiophen-2-yl)pyrazin-2-yl)benzamide]
  IC50: 101 to 1000 nM

## COc1cc(-c2cncc(-c3cc(NC(=O)CC4CC(F)C4)cs3)n2)ccc1C(=O)N(C)C1CCN(C)CC1 (stereo not shown) [Example B90, 4-(6-(4-(2-(3-fluorocyclobutyl)acetamido)thiophen-2-yl)pyrazin-2-yl)-2-methoxy-N-methyl-N-(1-methylpiperidin-4-yl)benzamide]
  IC50: < 10 nM

## COc1cc(-c2cncc(-c3cc(NC(=O)CC4CC(C(C)=O)C4)cs3)n2)ccc1C(=O)N(C)C1CCN(C)CC1 (stereo not shown) [Example B91, 4-(6-(4-(2-(3-acetylcyclobutyl)acetamido)thiophen-2-yl)pyrazin-2-yl)-2-methoxy-N-methyl-N-(1-methylpiperidin-4-yl)benzamide]
  IC50: 101 to 1000 nM

## COc1cc(-c2cncc(-c3cc(NC(=O)CC4CC(C(C)(F)F)C4)cs3)n2)ccc1C(=O)N(C)C1CCN(C)CC1 (stereo not shown) [Example B92, 4-(6-(4-(2-(3-(1,1-difluoroethyl)cyclobutyl)acetamido)thiophen-2-yl)pyrazin-2-yl)-2-methoxy-N-methyl-N-(1-methylpiperidin-4-yl)benzamide]
  IC50: 11 to 100 nM

## COc1cc(-c2cncc(-c3cc(NC(=O)CC4CCC4)cs3)n2)ccc1C(=O)N(C)C1CC2(C1)CN(C)C2 [Example B93, 4-(6-(4-(2-cyclobutylacetamido)thiophen-2-yl)pyrazin-2-yl)-2-methoxy-N-methyl-N-(2-methyl-2-azaspiro[3.3]heptan-6-yl)benzamide]
  IC50: 11 to 100 nM

## COc1cc(-c2cncc(-c3cc(NC(=O)CC4(N)CCC4)cs3)n2)ccc1C(=O)N(C)C1CCN(C)CC1 [Example B94, 4-(6-(4-(2-(1-aminocyclobutyl)acetamido)thiophen-2-yl)pyrazin-2-yl)-2-methoxy-N-methyl-N-(1-methylpiperidin-4-yl)benzamide]
  IC50: 101 to 1000 nM

## COc1cc(-c2cncc(-c3cc(NC(=O)C(C)C4CCC4)cs3)n2)ccc1C(=O)N(C)C1CCN(C)CC1 (stereo not shown) [Example B95, 4-(6-(4-(2-cyclobutylpropanamido)thiophen-2-yl)pyrazin-2-yl)-2-methoxy-N-methyl-N-(1-methylpiperidin-4-yl)benzamide]
  IC50: 11 to 100 nM

## COc1cc(-c2cncc(-c3cc(NC(=O)CC4CCC4)cs3)n2)ccc1C(=O)N(C)C1CCN(C2CC2)CC1 [Example B96, 4-(6-(4-(2-cyclobutylacetamido)thiophen-2-yl)pyrazin-2-yl)-N-(1-cyclopropylpiperidin-4-yl)-2-methoxy-N-methylbenzamide]
  IC50: 11 to 100 nM

## COc1cc(-c2cncc(-c3cc(NC(=O)CC4CCC4)cs3)n2)ccc1C(=O)N(C)C1CC2(C1)CN(C1CC1)C2 [Example B97, 4-(6-(4-(2-cyclobutylacetamido)thiophen-2-yl)pyrazin-2-yl)-N-(2-cyclopropyl-2-azaspiro[3.3]heptan-6-yl)-2-methoxy-N-methylbenzamide]
  IC50: 11 to 100 nM

## COc1cc(-c2cncc(-c3cc(NC(=O)CC4CCC4)cs3)n2)ccc1C(=O)NO [Example B98, 4-(6-(4-(2-cyclobutylacetamido)thiophen-2-yl)pyrazin-2-yl)-N-hydroxy-2-methoxybenzamide]
  IC50: < 10 nM

## COc1cc(-c2cncc(-c3cc(NC(=O)CC4CC(F)C4)cs3)n2)ccc1C(=O)N(C)C1CC2(C1)CN(C)C2 (stereo not shown) [Example B99, 4-(6-(4-(2-(3-fluorocyclobutyl)acetamido)thiophen-2-yl)pyrazin-2-yl)-2-methoxy-N-methyl-N-(2-methyl-2-azaspiro[3.3]heptan-6-yl)benzamide]
  IC50: < 10 nM

## COc1cc(-c2cncc(-c3cc(NC(=O)C(C)(C)C4CCC4)cs3)n2)ccc1C(=O)N(C)C1CCN(C)CC1 [Example B100, 4-(6-(4-(2-cyclobutyl-2-methylpropanamido)thiophen-2-yl)pyrazin-2-yl)-2-methoxy-N-methyl-N-(1-methylpiperidin-4-yl)benzamide]
  IC50: 11 to 100 nM

## COc1cc(-c2cncc(-c3cc(NC(=O)CC4CCC4)cs3)n2)ccc1S(=O)(=O)N(C)CCN(C)C [Example B101, 2-cyclobutyl-N-(5-(6-(4-(N-(2-(dimethylamino)ethyl)-N-methylsulfamoyl)-3-methoxyphenyl)pyrazin-2-yl)thiophen-3-yl)acetamide]
  IC50: 11 to 100 nM

## COc1cc(-c2cncc(-c3cc(NC(=O)CC4CC4)cs3)n2)ccc1S(=O)(=O)N(C)CCN(C)C [Example B102, 2-cyclopropyl-N-(5-(6-(4-(N-(2-(dimethylamino)ethyl)-N-methylsulfamoyl)-3-methoxyphenyl)pyrazin-2-yl)thiophen-3-yl)acetamide]
  IC50: 11 to 100 nM

## COc1cc(-c2cncc(-c3cc(NC(=O)CC4CC4)cs3)n2)ccc1S(=O)(=O)N(C)C1CCN(C)CC1 [Example B103, 2-cyclopropyl-N-(5-(6-(3-methoxy-4-(N-methyl-N-(1-methylpiperidin-4-yl)sulfamoyl)phenyl)pyrazin-2-yl)thiophen-3-yl)acetamide]
  IC50: 11 to 100 nM

## COc1cc(-c2cncc(-c3cc(NC(=O)CC4CCC4)cs3)n2)ccc1S(=O)(=O)N(C)C1CCN(C)CC1 [Example B104, 2-cyclobutyl-N-(5-(6-(3-methoxy-4-(N-methyl-N-(1-methylpiperidin-4-yl)sulfamoyl)phenyl)pyrazin-2-yl)thiophen-3-yl)acetamide]
  IC50: 11 to 100 nM

## COc1cc(-c2cncc(-c3cc(NC(=O)CC4CCC4)cs3)n2)ccc1S(=O)(=O)N1CCOCC1 [Example B105, 2-cyclobutyl-N-(5-(6-(3-methoxy-4-(morpholinosulfonyl)phenyl)pyrazin-2-yl)thiophen-3-yl)acetamide]
  IC50: 11 to 100 nM

## COc1ccc(-c2cncc(-c3cc(NC(=O)C4CCC4)cs3)c2C(N)=O)cc1OC [Example C1, 3-(4-(cyclobutanecarboxamido)thiophen-2-yl)-5-(3,4-dimethoxyphenyl)isonicotinamide]
  IC50: > 10000 nM

## COc1ccc(-c2cncc(-c3cc(NC(=O)C4CCC4)cs3)c2C#N)cc1OC [Example C2, N-(5-(4-cyano-5-(3,4-dimethoxyphenyl)pyridin-3-yl)thiophen-3-yl)cyclobutanecarboxamide]
  IC50: 1000 to 10000 nM

## CCCCC(=O)Nc1csc(-c2cncc(-c3ccc(OC)c(OC)c3)c2C(N)=O)c1 [Example C3, 3-(3,4-dimethoxyphenyl)-5-(4-pentanamidothiophen-2-yl)isonicotinamide]
  IC50: 1000 to 10000 nM

## CCCCC(=O)Nc1csc(-c2cncc(-c3ccc(OC)c(OC)c3)c2C#N)c1 [Example C4, N-(5-(4-cyano-5-(3,4-dimethoxyphenyl)pyridin-3-yl)thiophen-3-yl)pentanamide]
  IC50: 1000 to 10000 nM

## COc1ccc(-c2cncc(NC3CCC(N)CC3)n2)cc1OC (stereo not shown) [Example D1, N^1-(6-(3,4-dimethoxyphenyl)pyrazin-2-yl)cyclohexane-1,4-diamine]
  IC50: > 10000 nM

## COc1ccc(-c2cncc(NC3CCC(NC(=O)C4CCC4)CC3)n2)cc1OC (stereo not shown) [Example D2, N-(4-((6-(3,4-dimethoxyphenyl)pyrazin-2-yl)amino)cyclohexyl)cyclobutanecarboxamide]
  IC50: > 10000 nM

## COc1ccc(-c2cncc(-c3nc(NC(=O)OC(C)(C)C)cs3)n2)cc1OC [Example D3, tert-butyl (2-(6-(3,4-dimethoxyphenyl)pyrazin-2-yl)thiazol-4-yl)carbamate]
  IC50: > 10000 nM

## CCN(CC)C(=O)Nc1csc(-c2cncc(-c3ccc(OC)c(OC)c3)n2)n1 [Example D4, 3-(2-(6-(3,4-dimethoxyphenyl)pyrazin-2-yl)thiazol-4-yl)-1,1-diethylurea]
  IC50: 1000 to 10000 nM
